# In patent publication US11186564B2, “Dual NAV1.2/5HT2a inhibitors for treating CNS disorders” (Sunovion Pharmaceuticals Inc., priority 2016, dated 2021):
# Target: T1, recombinant human serotonin receptor 5-HT2A (Homo sapiens, UniProt P28223)
# T1 construct: expressed in transfected cells; method B: loaded with Ca2+ dye
# Test: 5-HT2A antagonist Ca2+ assay in CHO-K1 cells (method A aequorin luminescence / method B FLIPR fluorescence)
# Assay type: cell-based
# Conditions: 5HT2A IC50, μM, antagonist mode vs EC80 of reference agonist, method A or B
# From the text: The methods utilized to assess the inhibitory activity of compounds on recombinant human serotonin receptor 5-HT2A was based upon previously published approaches [Jerman J C, Brough S J, Gager T, Wood M, Coldwell M C, Smart D, Middlemiss D N. Pharmacological characterisation of human 5-HT2 receptor subtypes. European Journal of Pharmacology 2001 Feb. 23; 414(1):23-30; Le Poul E, Hisada S, Mizuguchi Y, Dupriez V J, Burgeon E, Detheux M. Adaptation of aequorin functional assay to high throughput screening. J Biomolecular Screening 2002 February; 7(1):57-65.] The 5-HT2A receptor signals through Gq-phospholipase signaling cascade, which leads to a transient increase in free intracellular […] concentration. Both 5-HT2A assay methods rely upon monitoring these changes in Ca^2+ concentration.
# In method A [Le Poul E, Hisada S, Mizuguchi Y, Dupriez V J, Burgeon E, Detheux M. (2002)], CHO-K1 cells engineered to stably co-express both recombinant human 5-HT2A and mitochondrial apoaequorin are used. […] For agonist testing, 50 microliters of cell suspension is mixed with 50 microliters of a solution containing test compound or reference agonist in a 96-well standard geometry microtiter plate. The resulting emission of light was recorded using a Hamamatsu Functional Drug Screening System 6000 (FDSS 6000) luminometer. For antagonist testing, 100 microliters of the solution of reference agonist (to yield an agonist concentration, EC80, sufficient to cause the cells to generate an 80% maximal luminescence response in the absence of any antagonist) is injected into the mix of cells and test compound, 15 minutes after the first injection. The resulting emission of light is recorded using Hamamatsu FDSS 6000 luminometer. IC50 values are calculated (from compound concentration dependent inhibition of agonist-induced 5-HT2A-dependent light emission) by non-linear least squares regression of the data (percent inhibition) onto equation (1) above.
# In method B [Jerman J C, Brough S J, Gager T, Wood M, Coldwell M C, Smart D, Middlemiss D N. (2001)], CHO-K1 cells which had been engineered to stably co-express recombinant human 5-HT2A are used in assay done similarly to method A. In method B, the cells are loaded with a fluorogenic Ca^2+ indicator dye by pre-incubation. Addition of the reference agonist serotonin causes a transient increase in fluorescence in a suspension of the loaded cells, which can be detected using the Molecular Devices fluorometric imaging plate reader (FLIPR), a high-throughput platform for 96-well cell-based assays. Addition of test compounds that are 5-HT2A antagonists, prior to the addition of the agonist (to yield an agonist concentration, EC80, sufficient to cause the cells to generate an 80% maximal fluorescence response in the absence of any antagonist), reduces the amount of fluorescence detected by the FLIPR upon agonist addition. IC50 values are calculated (from compound concentration dependent inhibition of agonist-induced 5-HT2A-dependent fluorescence) by non-linear least squares regression of the data (percent inhibition) onto equation (1) above.
# T1 sequence (P28223 whole entry): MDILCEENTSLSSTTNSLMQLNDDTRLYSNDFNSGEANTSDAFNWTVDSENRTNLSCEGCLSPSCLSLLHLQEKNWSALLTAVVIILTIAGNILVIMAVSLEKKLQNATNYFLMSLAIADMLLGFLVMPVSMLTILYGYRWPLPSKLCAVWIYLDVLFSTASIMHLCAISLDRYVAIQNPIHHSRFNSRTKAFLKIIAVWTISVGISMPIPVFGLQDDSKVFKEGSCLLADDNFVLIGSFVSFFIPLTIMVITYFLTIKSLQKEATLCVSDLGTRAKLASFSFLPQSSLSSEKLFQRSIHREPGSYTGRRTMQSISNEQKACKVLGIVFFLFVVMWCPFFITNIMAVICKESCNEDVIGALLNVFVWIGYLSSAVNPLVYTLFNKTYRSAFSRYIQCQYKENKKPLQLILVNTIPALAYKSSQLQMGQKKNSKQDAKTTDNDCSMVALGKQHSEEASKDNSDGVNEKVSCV
row,Compound,IC50 [µM]
1,"c1ccc2c(c1)CC(CN1CCC3(CC1)OCc1ccccc13)C2 [Example 392, 1′-((2,3-dihydro-1H-inden-2-yl)methyl)-3H-spiro[isobenzofuran-1,4′-piperidine]]",1.59

# Same assay, conditions: antagonist mode vs EC80 of reference agonist, method A or B, read-out: 5HT2A IC50
row,Compound,IC50 [µM]
1,"COCc1cccc(OC2CCN(CC3CCOc4ccccc43)CC2)c1 (centres unmarked) [Example 163, 1-(chroman-4-ylmethyl)-4-(3-(methoxymethyl)phenoxy)piperidine]",0.26
2,"OC(CO[C@H]1CCc2ccccc21)CN1CC[C@H](Oc2cccc(F)c2)C1 (stereo partly drawn) [Example 35, 1-(((S)-2,3-dihydro-1H-inden-1-yl)oxy)-3-((S)-3-(3-fluorophenoxy)pyrrolidin-1-yl)propan-2-ol]",7.13
3,"N#Cc1ccc(OC2CCN(CC3Cc4cccnc4C3)CC2)cc1 (centres unmarked) [Example 156, 4-((1-((6,7-dihydro-5H-cyclopenta[b]pyridin-6-yl)methyl)piperidin-4-yl)oxy) benzonitrile]",2.01
4,"COc1ccccc1O[C@H]1CCN(CCN2CCc3ccccc3C2=O)[C@H]1C [Example 19, 2-(2-((2S,3S)-3-(2-methoxyphenoxy)-2-methylpyrrolidin-1-yl)ethyl)-3,4-dihydroisoquinolin-1(2H)-one]",0.56
5,"O=C1c2ccccc2CCN1CCN1CC[C@@H](Oc2ccncc2)C1 [Example 29, (R)-2-(2-(3-(pyridin-4-yloxy)pyrrolidin-1-yl)ethyl)-3,4-dihydroisoquinolin-1(2H)-one]",> 16.7
6,"COc1ccccc1O[C@H]1CCN(CCC2CCOc3ccccc32)[C@@H](C)C1 (stereo partly drawn) [Example 181, (2S,4S)-1-(2-(chroman-4-yl)ethyl)-4-(2-methoxyphenoxy)-2-methylpiperidine]",> 10
7,"COc1ccc2c(c1)C(CN1CCC(Oc3cccnc3)CC1)CC2 (centres unmarked) [Example 109, 3-((1-((6-methoxy-2,3-dihydro-1H-inden-1-yl)methyl)piperidin-4-yl)oxy)pyridine]",1.92
8,"OC(COc1ccccc1)CN1C[C@H]2CC[C@@H](C1)N2c1ccccc1 (stereo partly drawn) [Example 302, 1-phenoxy-3-((1R,5S)-8-phenyl-3,8-diazabicyclo[3.2.1]octan-3-yl)propan-2-ol]",> 2.7
9,"O=C1c2ccccc2CCN1CCN1CC[C@H](Oc2ccccn2)C1 [Example 16, (S)-2-(2-(3-(pyridin-2-yloxy)pyrrolidin-1-yl)ethyl)-3,4-dihydroisoquinolin-1(2H)-one]",1.85
10,"O[C@H](COC1CCCCC1)CN1[C@@H]2CC[C@H]1CN(c1nccs1)C2 [Example 292, (S)-1-(cyclohexyloxy)-3-((1R,5S)-3-(thiazol-2-yl)-3,8-diazabicyclo[3.2.1]octan-8-yl)propan-2-ol]",> 10
11,"COc1ccccc1OC1CCN(CC2CCc3ccccc32)CC1 (centres unmarked) [Example 105, 1-((2,3-dihydro-1H-inden-1-yl)methyl)-4-(2-methoxyphenoxy)piperidine]",0.43
12,"O[C@H](COC1CCCCC1)CN1C[C@H]2CC[C@@H](C1)N2c1ccccc1 [Example 300, (S)-1-(cyclohexyloxy)-3-((1R,5S)-8-phenyl-3,8-diazabicyclo[3.2.1]octan-3-yl)propan-2-ol]",> 10
13,"Fc1ccccc1OC1CCN(CC2COc3ccccc32)CC1 (centres unmarked) [Example 132, 1-((2,3-dihydrobenzofuran-3-yl)methyl)-4-(2-fluorophenoxy)piperidine]",0.04
14,"Fc1ccc(O[C@H]2CCN(CC3CCc4cnccc43)C2)cc1 (stereo partly drawn) [Example 2, 5-(((S)-3-(4-fluorophenoxy)pyrrolidin-1-yl)methyl)-6,7-dihydro-5H-cyclopenta[c]pyridine]",1.25
15,"COc1ccc2c(c1)C(CN1CCC(Oc3cccc(C#N)c3)CC1)CC2 (centres unmarked) [Example 110, 3-((1-((6-methoxy-2,3-dihydro-1H-inden-1-yl)methyl)piperidin-4-yl)oxy)benzonitrile]",4.04
16,"CC(CN1CCc2ccccc2C1=O)N1CCC(Oc2ccc(F)cc2)CC1 (centres unmarked) [Example 204, 2-(2-(4-(4-fluorophenoxy)piperidin-1-yl)propyl)-3,4-dihydroisoquinolin-1(2H)-one]",0.56
17,"O[C@H](COC1CCCCC1)CN1CC[C@@H]2C[C@H]1CN2c1ccccc1 [Example 326, (S)-1-(cyclohexyloxy)-3-((1S,5R)-6-phenyl-2,6-diazabicyclo[3.2.1]octan-2-yl)propan-2-ol]",> 3.16
18,"COc1ccccc1O[C@@H]1CCN(CCN2CCc3ccccc3C2=O)[C@H]1C [Example 17, 2-(2-((2S,3R)-3-(2-methoxyphenoxy)-2-methylpyrrolidin-1-yl)ethyl)-3,4-dihydroisoquinolin-1(2H)-one]",0.4
19,"c1ccc(OCCN2CCC(Oc3ccc4cccnc4c3)CC2)cc1 [Example 231, 7-((1-(2-phenoxyethyl)piperidin-4-yl)oxy)quinoline]",0.79

# The remaining lines, values ahead:
row,IC50 [µM],Compound
1,0.94,"O=C1c2ccccc2CCN1CCN1CCC[C@@H](Oc2ccc(F)cc2)C1 [Example 264, (R)-2-(2-(3-(4-fluorophenoxy)piperidin-1-yl)ethyl)-3,4-dihydroisoquinolin-1(2H)-one]"
2,> 16.7,"O=C1c2ccccc2CCN1CCN1CCOC(Cc2ccccc2)C1 (centres unmarked) [Example 252, 2-(2-(2-benzylmorpholino)ethyl)-3,4-dihydroisoquinolin-1(2H)-one]"
3,0.12,"C[C@H]1C[C@]2(CCc3ccccc3O2)CCN1CCN1CCc2ccccc2C1=O [Example 425, 2-(2-((2S,2′S)-2′-methylspiro[chromane-2,4′-piperidin]-1′-yl)ethyl)-3,4-dihydroisoquinolin-1(2H)-one]"
4,> 3.16,"c1ccc(N2C[C@@H]3C[C@H]2CCN3CC2COCc3ccccc32)cc1 (stereo partly drawn) [Example 322, (1S,5R)-2-(isochroman-4-ylmethyl)-6-phenyl-2,6-diazabicyclo[3.2.1]octane]"
5,2.81,"C[C@@H]1C[C@]2(CCc3ccccc3O2)CCN1CCN1CCc2ccccc2C1=O [Example 423, 2-(2-((2S,2′R)-2′-methylspiro[chromane-2,4′-piperidin]-1′-yl)ethyl)-3,4-dihydroisoquinolin-1(2H)-one]"
6,2.15,"c1ccc(CN2CCC3(CCc4ccccc4O3)CC2)cc1 [Example 415, 1′-benzylspiro[chromane-2,4′-piperidine]]"
7,> 10,"COc1ccccc1N1CCC2(CCN(CC3Cc4cccnc4C3)C2)C1 (centres unmarked) [Example 338, 2-((6,7-dihydro-5H-cyclopenta[b]pyridin-6-yl)methyl)-7-(2-methoxyphenyl)-2,7-diazaspiro[4.4]nonane]"
8,> 10,"c1ccc2c(c1)CC1(CCN(CC3COc4ccccc43)CC1)O2 (centres unmarked) [Example 395, 1′-((2,3-dihydrobenzofuran-3-yl)methyl)-3H-spiro[benzofuran-2,4′-piperidine]]"
9,0.74,"c1ccc2c(c1)CCC1(CCN(CC3CCc4cnccc43)CC1)O2 (centres unmarked) [Example 408, 1′-((6,7-dihydro-5H-cyclopenta[c]pyridin-5-yl)methyl)spiro[chromane-2,4′-piperidine]]"
10,2.46,"COc1cccc(CN2CCC3(CCN(c4ccccc4)C3)C2)c1 (centres unmarked) [Example 343, 2-(3-methoxybenzyl)-7-phenyl-2,7-diazaspiro[4.4]nonane]"
11,1.63,"Fc1ccc(O[C@@H]2CCCN(CCC3CCOc4ccccc43)C2)cc1 (stereo partly drawn) [Example 262, (3R)-1-(2-(chroman-4-yl)ethyl)-3-(4-fluorophenoxy)piperidine]"
12,> 3.16,"COc1ccc2c(c1)C(CN1CCC(OCc3ccncc3)CC1)CC2 (centres unmarked) [Example 248, 4-(((1-((6-methoxy-2,3-dihydro-1H-inden-1-yl)methyl)piperidin-4-yl)oxy)methyl)pyridine]"
13,3.12,"Fc1ccc(N2CCC3(CCN(CC4Cc5ccncc5C4)C3)C2)cc1 (centres unmarked) [Example 341, 2-((6,7-dihydro-5H-cyclopenta[c]pyridin-6-yl)methyl)-7-(4-fluorophenyl)-2,7-diazaspiro[4.4]nonane]"
14,10.4,"OC(COc1ccccc1)CN1C[C@@H]2C[C@H]1CN2c1ccccc1 (stereo partly drawn) [Example 307, 1-phenoxy-3-((1S,4S)-5-phenyl-2,5-diazabicyclo[2.2.1]heptan-2-yl)propan-2-ol]"
15,0.09,"O[C@H](COC1CCCCC1)CN1CC2(CC(Oc3ccccc3)CO2)C1 (stereo partly drawn) [Example 371, (2S)-1-(cyclohexyloxy)-3-(7-phenoxy-5-oxa-2-azaspiro[3.4]octan-2-yl)propan-2-ol]"
